pIC50: −log10 of the molar value. Where two headings read alike, the source gives them in different places. Bridge positions count the residues as written; N and C are the ends. Square brackets hold non-standard residues; d marks the D form. Peptide text beside a SMILES is read from it. R8 = C=CCCCCCC[C@@](C)(N)C(=O)O; S5 = C=CCCC[C@](C)(N)C(=O)O
Tests used:
[1] = test system: α-chymotrypsin; assay: Protease stability experiment (α-chymotrypsin-mediated degradation); format: in vitro ADME; settings: for half-life at 25 µM: α-chymotrypsin 0.5 ng/μl in PBS pH 7.4 with 2 mM CaCl2, 50 μl peptide 1 mM in DMSO + 1,950 μl enzyme, 37°C, 0, 1, 2, 4, 8, 12 h, residual peptide by HPLC, read-out: t1/2 (h), hydrolysis enzyme degradation half-life (converted); for remaining at 12 h, 25 µM: read-out: peptide remaining intact after 12 h of protease exposure
Experimental: Protease Stability Experiment
Fifty microliters peptides in dimethyl sulfoxide (DMSO) (1 mM) and 1,950 μl α-chymotrypsin in phosphate-buffered saline (PBS) (0.5 ng/μl, pH 7.4, containing 2 mM CaCl2) were mixed and incubated at 37°C. After 0, 1, 2, 4, 8, and 12 h, the percent residual peptide was monitored by HPLC.

[2] = test system: glioma cell line U87; format: cell-based; settings: for IC50: CCK-8, 96 h treatment, 0.39-50 μM, OD 450 nm, read-out: IC50 (μM) U87
Excerpt: (§1) Cell Culture and Cell Viability Assay
(§2) The human prostate cancer cell line C4-2B was kindly provided and authenticated by Dr. Leland Chung (Cedars-Sinai Medical Center, Los Angeles, CA, USA). The human lung tumor cell line A549, the human breast tumor cell line MCF-7, and glioma cell line U87 were obtained from Shanghai Cellular Institute of Chinese Academy of Sciences (Shanghai, China). All cell lines were maintained in Dulbecco's modified Eagle's medium (DMEM) involving 10% fetal bovine serum (FBS) and 1% penicillin–streptomycin (PS) (complete DMEM) and was cultured at 37°C with humidified atmosphere of 5% CO2. Cell viability was examined using the cell counting kit (CCK-8) in accordance with manufacturer's protocol. Cells were seeded in 96-well culture plates at a density of 3 ×10^3 cells/well at 37°C for 24 h. Next day, cells were treated without or with various concentrations (0.39, 0.78, 1.56, 3.125, 6.25, 12.5, 25, and 50 μM) of peptides for 96 h after which 10 μl of CCK-8 reagent was added to each well and incubated for further 2 h at 37°C. The optical density (OD) was then measured at a wavelength of 450 nm on a Cell Imaging Multi-Mode Reader (BioTek, Vermont, USA), and the average OD values for each sample were analyzed using Image-J software (NIH, Bethesda, MD, USA). The half maximal inhibitory concentration (IC50) was calculated by GraphPad Prism v7.0 software (San Diego, CA, USA).

[3] = test system: human breast tumor cell line MCF-7; format: cell-based; settings: for IC50: CCK-8, 96 h treatment, 0.39-50 μM, OD 450 nm, read-out: IC50 (μM) MCF-7
Excerpt: as §1, §2

[4] = test system: human prostate cancer cell line C4-2B; format: cell-based; settings: for IC50: CCK-8, 96 h treatment, 0.39-50 μM, OD 450 nm, read-out: IC50 (μM) C4-2B
Excerpt: as §1, §2

[5] = test system: human lung tumor cell line A549; format: cell-based; settings: for IC50: CCK-8, 96 h treatment, 0.39-50 μM, OD 450 nm, read-out: IC50 (μM) A549
Excerpt: as §1, §2

[6] = on-resin all-hydrocarbon stapling by ring-closing metathesis of S5/S5 (i,i+4) or R8/S5 (i,i+7), Grubbs first-generation catalyst (0.45 mmol per 0.15 mmol resin, 3 equiv), then TFA/TIPS/phenol/H2O cleavage and RP-HPLC; settings: the molecule shown is the open-chain precursor, 25.0 °C, 4.0 h, 36 steps
[7] = 21-membered ring, 1,2-dichloroethane
[8] = α-chymotrypsin 0.5 ng/μl in PBS pH 7.4 with 2 mM CaCl2, 37°C, 12 h, HPLC

Compound | half-life at 25 µM [1] | IC50 [2] | IC50 [3] | IC50 [4] | IC50 [5] | ring closure, overall yield [6, 7] | also measured
CC[C@H](C)[C@H](NC(=O)[C@@H](NC(=O)[C@H](CO)NC(=O)[C@]1(C)CCCC=CCCC[C@](C)(NC(=O)[C@@H](NC(=O)[C@H](C)NC(=O)[C@H](Cc2ccccc2)NC(=O)[C@H](CC(C)C)NC(=O)CNC(C)=O)C(C)C)C(=O)N[C@@H](CCCCN)C(=O)N[C@@H](CCCCN)C(=O)N[C@@H](C(C)C)C(=O)N1)C(C)C)C(=O)N[C@@H](CCCCN)C(=O)NCC(=O)N[C@@H](CC(C)C)C(N)=O [A4K14-citropin1.1-3] (Ac-GLFAV[S5]KKV[S5]SVIKGL-NH2; staple 6-10) | 0.61 h | 11.9 µM | 11.9 µM | 17.9 µM | 12.1 µM |  | 
C=CCCC[C@](C)(NC(=O)[C@@H](NC(=O)[C@H](C)NC(=O)[C@H](Cc1ccccc1)NC(=O)[C@H](CC(C)C)NC(=O)CNC(C)=O)C(C)C)C(=O)N[C@@H](CCCCNC(=O)OC(C)(C)C)C(=O)N[C@@H](CCCCNC(=O)OC(C)(C)C)C(=O)N[C@H](C(=O)N[C@@](C)(CCCC=C)C(=O)N[C@@H](COC(C)(C)C)C(=O)N[C@H](C(=O)N[C@H](C(=O)N[C@@H](CCCCNC(=O)OC(C)(C)C)C(=O)NCC(=O)N[C@@H](CC(C)C)C(N)=O)[C@@H](C)CC)C(C)C)C(C)C |  |  |  |  |  | 71 % yield | 
CC[C@H](C)[C@H](NC(=O)[C@@H](NC(=O)[C@H](C)NC(=O)[C@H](Cc1ccccc1)NC(=O)[C@H](CC(C)C)NC(=O)CNC(C)=O)C(C)C)C(=O)N[C@@H](CCCCN)C(=O)N[C@@H](CCCCN)C(=O)N[C@H](C(=O)N[C@@H](C)C(=O)N[C@@]1(C)CCCC=CCCC[C@@](C)(C(=O)N[C@@H](CC(C)C)C(N)=O)NC(=O)[C@H](CCCCN)NC(=O)[C@H]([C@@H](C)CC)NC(=O)[C@H](C(C)C)NC1=O)C(C)C [A4K14-citropin1.1-5] (Ac-GLFAVIKKVA[S5]VIK[S5]L-NH2; staple 11-15) | 1.83 h | 8.23 µM | 12.4 µM | 11.9 µM | 9.9 µM |  | 
C=CCCC[C@](C)(NC(=O)[C@H](C)NC(=O)[C@H](Cc1ccccc1)NC(=O)[C@H](CC(C)C)NC(=O)CNC(C)=O)C(=O)N[C@H](C(=O)N[C@@H](CCCCNC(=O)OC(C)(C)C)C(=O)N[C@@H](CCCCNC(=O)OC(C)(C)C)C(=O)N[C@@](C)(CCCC=C)C(=O)N[C@@H](C)C(=O)N[C@@H](COC(C)(C)C)C(=O)N[C@H](C(=O)N[C@H](C(=O)N[C@@H](CCCCNC(=O)OC(C)(C)C)C(=O)NCC(=O)N[C@@H](CC(C)C)C(N)=O)[C@@H](C)CC)C(C)C)[C@@H](C)CC |  |  |  |  |  | 62 % yield | 
CC[C@H](C)[C@H](NC(=O)[C@@H](NC(=O)[C@H](C)NC(=O)[C@H](Cc1ccccc1)NC(=O)[C@H](CC(C)C)NC(=O)CNC(C)=O)C(C)C)C(=O)N[C@@H](CCCCN)C(=O)N[C@@H](CCCCN)C(=O)N[C@@]1(C)CCCC=CCCC[C@@](C)(C(=O)N[C@@H](CCCCN)C(=O)NCC(=O)N[C@@H](CC(C)C)C(N)=O)NC(=O)[C@H](C(C)C)NC(=O)[C@H](CO)NC(=O)[C@H](C)NC1=O [A4K14-citropin1.1-4] (Ac-GLFAVIKK[S5]ASV[S5]KGL-NH2; staple 9-13) | > 10 h | 7.28 µM | 10.5 µM | 8.9 µM | 10.5 µM |  | remaining at 12 h, 25 µM [1, 8]: > 85%
C=CCCC[C@](C)(NC(=O)CNC(C)=O)C(=O)N[C@@H](Cc1ccccc1)C(=O)N[C@@H](C)C(=O)N[C@H](C(=O)N[C@@](C)(CCCC=C)C(=O)N[C@@H](CCCCNC(=O)OC(C)(C)C)C(=O)N[C@@H](CCCCNC(=O)OC(C)(C)C)C(=O)N[C@H](C(=O)N[C@@H](C)C(=O)N[C@@H](COC(C)(C)C)C(=O)N[C@H](C(=O)N[C@H](C(=O)N[C@@H](CCCCNC(=O)OC(C)(C)C)C(=O)NCC(=O)N[C@@H](CC(C)C)C(N)=O)[C@@H](C)CC)C(C)C)C(C)C)C(C)C |  |  |  |  |  | 63 % yield | 
CC[C@H](C)[C@H](NC(=O)[C@@H](NC(=O)[C@H](CO)NC(=O)[C@H](C)NC(=O)[C@]1(C)CCCC=CCCC[C@](C)(NC(=O)[C@H](C)NC(=O)[C@H](Cc2ccccc2)NC(=O)[C@H](CC(C)C)NC(=O)CNC(C)=O)C(=O)N[C@@H]([C@@H](C)CC)C(=O)N[C@@H](CCCCN)C(=O)N[C@@H](CCCCN)C(=O)N1)C(C)C)C(=O)N[C@@H](CCCCN)C(=O)NCC(=O)N[C@@H](CC(C)C)C(N)=O [A4K14-citropin1.1-2] (Ac-GLFA[S5]IKK[S5]ASVIKGL-NH2; staple 5-9) | 1.72 h |  |  |  |  |  | pIC50 ([2]; 96 h): 4.83; pIC50 ([3]; 96 h): 4.90; pIC50 ([4]; 96 h): 4.99; pIC50 ([5]; 96 h): 4.90
C=CCCC[C@](C)(NC(=O)[C@H](CCCCNC(=O)OC(C)(C)C)NC(=O)[C@H](CCCCNC(=O)OC(C)(C)C)NC(=O)[C@@H](NC(=O)[C@@H](NC(=O)[C@H](C)NC(=O)[C@H](Cc1ccccc1)NC(=O)[C@H](CC(C)C)NC(=O)CNC(C)=O)C(C)C)[C@@H](C)CC)C(=O)N[C@@H](C)C(=O)N[C@@H](COC(C)(C)C)C(=O)N[C@H](C(=O)N[C@@](C)(CCCC=C)C(=O)N[C@@H](CCCCNC(=O)OC(C)(C)C)C(=O)NCC(=O)N[C@@H](CC(C)C)C(N)=O)C(C)C |  |  |  |  |  | 66 % yield | 
CC(=O)NCC(=O)N[C@@H](CC(C)C)C(=O)N[C@@H](Cc1ccccc1)C(=O)N[C@@H](C)C(=O)N[C@H](C(=O)N[C@]1(C)CCCCCCC=CCCC[C@@](C)(C(=O)N[C@@H](CCCCN)C(=O)NCC(=O)N[C@@H](CC(C)C)C(N)=O)NC(=O)[C@H](C(C)C)NC(=O)[C@H](CO)NC(=O)[C@H](C)NC(=O)[C@H](C(C)C)NC(=O)[C@H](CCCCN)NC(=O)[C@H](CCCCN)NC1=O)C(C)C [A4K14-citropin1.1-7] (Ac-GLFAV[R8]KKVASV[S5]KGL-NH2; staple 6-13) | 0.58 h | 14.7 µM | 12.1 µM | 10.2 µM | 16.4 µM |  | 
CC[C@H](C)[C@@H]1NC(=O)[C@H](C(C)C)NC(=O)[C@H](C)NC(=O)[C@H](Cc2ccccc2)NC(=O)[C@](C)(NC(=O)CNC(C)=O)CCCCCCC=CCCC[C@@](C)(C(=O)N[C@@H](C)C(=O)N[C@@H](CO)C(=O)N[C@H](C(=O)N[C@H](C(=O)N[C@@H](CCCCN)C(=O)NCC(=O)N[C@@H](CC(C)C)C(N)=O)[C@@H](C)CC)C(C)C)NC(=O)[C@H](CCCCN)NC(=O)[C@H](CCCCN)NC1=O [A4K14-citropin1.1-6] (Ac-G[R8]FAVIKK[S5]ASVIKGL-NH2; staple 2-9) | 0.57 h | 34.5 µM | 23.8 µM | 35.8 µM | 30.2 µM |  | 
Ac-GLFAVIKKVASVIKGL-NH2 [A4K14-citropin1.1, reference compound] | 0.63 h | 14.8 µM | 14.2 µM | 29.1 µM | 15 µM |  | peptide remaining intact after 12 h of protease exposure [1, 8]: degraded completely
C=CCCCCCC[C@@](C)(NC(=O)[C@@H](NC(=O)[C@H](C)NC(=O)[C@H](Cc1ccccc1)NC(=O)[C@H](CC(C)C)NC(=O)CNC(C)=O)C(C)C)C(=O)N[C@@H](CCCCNC(=O)OC(C)(C)C)C(=O)N[C@@H](CCCCNC(=O)OC(C)(C)C)C(=O)N[C@H](C(=O)N[C@@H](C)C(=O)N[C@@H](COC(C)(C)C)C(=O)N[C@H](C(=O)N[C@@](C)(CCCC=C)C(=O)N[C@@H](CCCCNC(=O)OC(C)(C)C)C(=O)NCC(=O)N[C@@H](CC(C)C)C(N)=O)C(C)C)C(C)C |  |  |  |  |  |  | ring closure, overall yield ([6]; 33-membered ring, 1,2-dichloroethane): 62 % yield
CC[C@H](C)[C@H](NC(=O)[C@@H](NC(=O)[C@H](CO)NC(=O)[C@H](C)NC(=O)[C@@H](NC(=O)[C@H](CCCCN)NC(=O)[C@H](CCCCN)NC(=O)[C@]1(C)CCCC=CCCC[C@](C)(NC(=O)CNC(C)=O)C(=O)N[C@@H](Cc2ccccc2)C(=O)N[C@@H](C)C(=O)N[C@@H](C(C)C)C(=O)N1)C(C)C)C(C)C)C(=O)N[C@@H](CCCCN)C(=O)NCC(=O)N[C@@H](CC(C)C)C(N)=O [A4K14-citropin1.1-1] (Ac-G[S5]FAV[S5]KKVASVIKGL-NH2; staple 2-6) | > 10 h | 11.9 µM | 11.3 µM | 8.94 µM | 12.5 µM |  | remaining at 12 h, 25 µM [1, 8]: > 85%

Source: PMC7758422, “Design, Synthesis, and Antitumor Activities Study of Stapled A4K14-Citropin 1.1 Peptides” (Frontiers in Chemistry, 2020)
